US8163795B2, “Chroman derivatives, medicaments and use in therapy” (Marshall Edwards, Inc., priority 2004, dated 2012)
Read-outs that look alike come from different tables or passages of the source.

What was measured:
[1] = test system: Mel-RM melanoma cell line; test: HMC combination with gemcitabine (synergy); type: cell-based; settings: for IC50: Table 9, single agent
Description: (§1) IC50 values were determined for each cell line. Cells were seeded in 96-well plates at an appropriate cell density as determined from growth kinetics analysis and cultured for 5 days in the absence and presence of the test compounds. Cell proliferation was assessed after the addition of 20 μl of 3-4,5 dimethylthiazol-2,5-diphenyl tetrazolium bromide (MTT, 2.5 mg/ml in PBS, Sigma) for 3-4 hrs at 37° C. according to manufacturer's instructions. IC50 values were calculated from semi-log plots of % of control proliferation on the y-axis against log dose on the x-axis.
3-D model analysis of the cytotoxic interaction between drug A and drug B enables the representation of predicted inhibitory effect of two drugs in combination in 3 dimensions to reveal actual regions of synergy or antagonism. The 3D synergy plots are based on a theory of “Theretical Additivity” (TA) as outlined by Kanzawa et al (Int. J. Cancer 71, 311-319 (1997)). Theoretical Additivity was calculated from the cytotoxicities of drug A and drug B as monotherapies using the following formula which assumes the drugs are mutually exclusive inhibitors: […]
The TA is calculated for each combination of drug concentrations and subtracted from the observed experimental effect for each combination to give a measurement of synergisitic action.
HMC synergy with gemcitabine was assessed either in combination over 5 days exposure or in sequence (HMC→gemcitabine) against the Mel-RM melanoma cell line. It was difficult to assess for synergisitic toxicity using a change in IC50 as a measure of synergy due to HMC toxicity as monotherapy (Table 9). […] Evidence of synergy using the HMC-gemcitabine combination was further assessed using the HMC→gemcitabine sequence (24 hr exposure to each compound in sequence) against the melanoma cell line Mel-RM. Using change in IC50 to assess for synergy it was noted that HMC at concentrations of 2 and 1 μM markedly chemosensitised the Mel-RM cells to gemcitabine by >1000 fold. HMC-induced chemosensitisation of Mel-RM cells to gemcitabine was confirmed using 3D analysis of the data.

TXB2 = test: Eicosanoid synthesis in LPS-stimulated murine macrophages (RAW 264.7); type: cell-based, mouse; settings: 10 μM; negative values indicate inhibition
Description: (§2) The mouse macrophage cell line RAW 264.7 was cultured in DMEM supplemented with foetal calf serum (FCS), 2 mM glutamine and 50 U/ml penicillin/streptomycin. Subconfluent cells were detached from the flask by gentle scraping and 24-well plates seeded at 5×10^5 cells per well and allowed to adhere for 1 hr. Cells were then treated either test compound at a concentration of 10 μM (in 0.025% DMSO) or vehicle alone, and incubated for 1 hr. LPS 50 ng/ml (LPS—Sigma-Aldrich) was then added. After incubation for 16 hrs, culture media was collected and stored at −80° C. for ecosanoid measurements using enzyme immunometric assays (PGE2 and TXB2—Cayman Chemical).
(§3) Table 16: Percentage change in eicosanoid synthesis after incubating test compound at 10 μM compared with incubation with vehicle alone.

PGE2 = test: as above; type: cell-based, mouse; settings: 10 μM; negative values indicate inhibition
Description: as §2, §3

[2] = test system: IGR3 melanoma cells (Trail-resistant); test: Apoptosis incidence in melanoma cells; type: cell-based
[3] = test system: HPAC (CRL-2119) pancreatic cancer cell line; test: Proliferation assay (MTT); type: cell-based, human; settings: Homo sapiens, HPAC, read-out: IC50
NCI-H23 (Lung) = test: Proliferation assay (MTT); type: cell-based; settings: Homo sapiens, Table 2.1
How it was run: (§4)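 IC50 read from semi-log plots of proliferation as % of untreated control against log dose. Exposure lasted 5 days at 37° C, 5% CO2, with 10% FCS; viability detected by 3-4 hrs MTT incubation.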

4405 melanoma cell line = test: Proliferation assay (MTT); type: cell-based; settings: Table 15; melanoma 4405
How it was run: as §4

HCT-15 (Colorectal) = test: Proliferation assay (MTT); type: cell-based; settings: Homo sapiens; Table 2.1; Colorectal HCT-15
How it was run: as §4

CCRF-CEM (Leukemic) = test: Proliferation assay (MTT); type: cell-based; settings: Homo sapiens, CCRF-CEM
How it was run: as §4

IGR-3 (Melanoma) = test: Proliferation assay (MTT); type: cell-based
How it was run: as §4

LNCaP (Prostate) = test: Proliferation assay (MTT); type: cell-based; settings: Homo sapiens, Table 2.1
How it was run: as §4

HTB-138 (Glioma) = test: Proliferation assay (MTT); type: cell-based; settings: Table 2.1; Glioma HTB-138
How it was run: as §4

A2780 (Ovarian) = test: Proliferation assay (MTT); type: cell-based; settings: Homo sapiens, Table 2.1
How it was run: as §4

HT-29 (Colorectal) = test: Proliferation assay (MTT); type: cell-based; settings: Homo sapiens, Colorectal HT-29
How it was run: as §4

MM96L melanoma cell line = test: Proliferation assay (MTT); type: cell-based; settings: Homo sapiens, Table 15
How it was run: as §4

[4] = test system: MCF-7 breast cancer cell line; test: Proliferation assay (MTT); type: cell-based; settings: Homo sapiens, MCF7; Table 2.1; Breast MCF-7
How it was run: as §4

[5] = test system: MEL-RM melanoma cells (TRAIL sensitive); test: Apoptosis incidence in melanoma cells; type: cell-based
cancer cell lines = test: Proliferation assays, statements over several cancer cell lines; type: cell-based; settings: SKOV-3, PC3, MCF-7, MDA-MB-468, HTB-138, HPAC, large cell lung cancer
Description: as §1

## COc1ccc(C2c3ccc(O)cc3OCC2c2ccc(O)cc2)cc1 (stereo not shown) [Compound 1, 3-(4-hydroxyphenyl)-4-(4-methoxyphenyl)chroman-7-ol]
[1]; 120 h, 5 days exposure, read-out: IC50, Combined (monotherapy)
  IC50: 0.51 µM
[1]; Gemcitabine block, HMC 1 uM 24 hr then gemcitabine 24 hr
  Change Factor (HMC first): >1000
[1]; Gemcitabine block, HMC 2 uM 24 hr then gemcitabine 24 hr
  Change Factor (HMC first): >100
[1]; HMC 2 and 1 μM, HMC→gemcitabine sequence
  chemosensitisation of Mel-RM cells to gemcitabine (change in IC50): > 1000 fold
[1]; 24 hr exposure, read-out: IC50, 24 hr (monotherapy)
  IC50: 27.8 µM
[1]; upper block of Table 9, HMC 1 uM first, sequence
  Change Factor (HMC first): >1000
[1]; upper block of Table 9, HMC 2 uM first, sequence
  Change Factor (HMC first): >1000
TXB2
  Percentage change in TXB2 synthesis vs vehicle alone: 0%
PGE2
  Percentage change in PGE2 synthesis vs vehicle alone: −33.8%
[2]; 24 hr exposure, 1 uM
  Percent Apoptosis: 8%
[2]; 24 hr exposure, 2 uM
  Percent Apoptosis: 11%
[2]; 24 hr exposure, 4 uM
  Percent Apoptosis: 39%
[2]; 24 hr exposure, 8 uM
  Percent Apoptosis: 41%
[2]; 24 hr exposure, 20 uM
  Percent Apoptosis: 32%
[2]; 48 hr exposure, 1 uM
  Percent Apoptosis: 1%
[2]; 48 hr exposure, 2 uM
  Percent Apoptosis: 9%
[2]; 48 hr exposure, 4 uM
  Percent Apoptosis: 21%
[2]; 48 hr exposure, 8 uM
  Percent Apoptosis: 38%
[2]; 48 hr exposure, 20 uM
  Percent Apoptosis: 38%
[3]; Table 2.1, Pancreatic CRL-2119
  IC50: 14.1 ± 1.16 µM
[3]; Table 2.2, Pancreatic HPAC
  IC50: 2.8 ± 0.9 µM
NCI-H23 (Lung)
  IC50: 3.75 ± 2.5 µM
4405 melanoma cell line
  IC50: 1.46 ± 0.18 µM
HCT-15 (Colorectal)
  IC50: 37.8 ± 33 µM
CCRF-CEM (Leukemic); Table 2.1, Leukemic CCRF-CEM
  IC50: 1.9 µM
CCRF-CEM (Leukemic); Table 2.2, Leukaemia CCRF-CEM
  IC50: 2 ± 0.97 µM
IGR-3 (Melanoma); Table 2.1, Melanoma IGR-3
  IC50: 0.53 ± 0.02 µM
IGR-3 (Melanoma); Table 15, melanoma IgR3
  IC50: 0.51 ± 0.08 µM
LNCaP (Prostate)
  IC50: 4.52 µM
HTB-138 (Glioma)
  IC50: 1.9 ± 0.27 µM
A2780 (Ovarian)
  IC50: 1.58 ± 0.59 µM
HT-29 (Colorectal); HT-29, Table 2.1
  IC50: 3.7 ± 1.4 µM
HT-29 (Colorectal); HT-29, Table 2.2
  IC50: 5.4 ± 1.8 µM
MM96L melanoma cell line
  IC50: 1.31 ± 0.38 µM
[4]
  IC50: 7.15 ± 7 µM
[5]; 24 hr exposure, 1 uM
  Percent Apoptosis: 0%
[5]; 24 hr exposure, 2 uM
  Percent Apoptosis: 8%
[5]; 24 hr exposure, 4 uM
  Percent Apoptosis: 25%
[5]; 24 hr exposure, 8 uM
  Percent Apoptosis: 39%
[5]; 24 hr exposure, 20 uM
  Percent Apoptosis: 38%
[5]; 48 hr exposure, 1 uM
  Percent Apoptosis: 1.5%
[5]; 48 hr exposure, 2 uM
  Percent Apoptosis: 8%
[5]; 48 hr exposure, 4 uM
  Percent Apoptosis: 22%
[5]; 48 hr exposure, 8 uM
  Percent Apoptosis: 38%
[5]; 48 hr exposure, 20 uM
  Percent Apoptosis: 30%
Cancer cell lines
  activity compared to DHE IC50 values: 5-10 fold
